Reference: article PMC6698794, “Catalytic Knockdown of miR-21 by Artificial Ribonuclease: Biological Performance in Tumor Model” (Frontiers in Pharmacology, 2019)

Columns and labels:
[1] = Nuclease resistance assay in DMEM with 10% fetal bovine serum; format: in vitro ADME; details: 0.1 µg/µl, DMEM with 10% FBS, 37°C; 12% PAAG/8M urea gel, Stains-All
Description: Oligonucleotides or conjugates (0.1 µg/µl) were incubated at 37°C in Dulbecco’s Modified Eagle Medium (DMEM) (Sigma, USA) with 10% fetal bovine serum (FBS; GE Healthcare, USA). Reactions were quenched in urea (8M) and immediately frozen in liquid nitrogen, prior to analysis of thawed samples in 12% PAAG/8M urea gels, using Tris-Borate-EDTA (TBE) as running buffer, Stains-All (MP Biomedicals, USA) and photographic gel documentation (VilberLourmat, France).

B16 melanoma cells = assay: Annexin V-FITC/PI apoptosis assay; format: cell-based, mouse; details: 1 µM with Lipofectamine; 24, 48, 72 h after transfection; maximum extent; flow cytometry
Description: (§1) B16 cells were pre-seeded (2 × 10^5 per well of 24-well plates) in DMEM/10% FBS a day before transfection. Medium was replaced with serum-free DMEM, prior to incubation for 4 h with h-ODN, 2′-OMe, Inh (hsa-miR-21 5 p inhibitor, Ambion, USA), miR-21-miRNase, or luc-POC, each (0.1 or 1 µM) pre-complexed with Lipofectamine (Thermo Fisher Scientific, USA) in Opti-MEM medium (Thermo Fisher Scientific, USA) according to manufacturer’s instructions, then cells were cultivated in fresh culture standard medium for 24–72 h.
At 24, 48, and 72 h after transfection, cells were harvested, washed twice with PBS, resuspended in Binding Buffer to a density of 2–5 × 10^5/ml, and incubated with annexin V-FITC and propidium iodide (PI) (ab14085, Abcam, UK) in the dark at room temperature for 15 min, prior to flow cytometry analysis (Novocyte CEA Biosciences, USA).
(§2) Figure 2 Biological effect of the miR-21-specific miRNase. (A) Apoptotic profile of B16 melanoma cells after transfection with miR-21-miRNase and control luc-POC. Cytofluorimetric analysis of cells after staining with Annexin V-FITC/PI 48 h after transfection with miRNase or luc-POC (1 µM) in complex with Lipofectamine2000. Q1—population of living cells; Q2—Annexin V-FITC+/PI-, early apoptosis; Q3—Annexin V-FITC+/PI+, late apoptosis; Q4—Annexin V-FITC-/PI+, necrosis. (B) Average percentage of apoptotic (early and late apoptosis) and necrotic B16 cell population. Data represent mean ± s.e. of four independent experiments.(C, D) Invasion activity of B16 cells after incubation with Lipofectamine (LF) alone or treated with either hairpin antisense oligonucleotide (h-ODN), hairpin 2′-OMe oligonucleotide (2′-OMe), commercial miR-21 inhibitor (Inh), miR-21-miRNase, and control conjugate (luc-POC) in the concentration of 1 µM. Migration of cells was recorded in real time using the xCELLigence cell analysis system. Control—B16 cells without treatment. Data represent mean ± s.d. of four independent experiments.

B16 cells = assay: In vitro invasiveness assay (xCELLigence, Matrigel-coated CIM-Plates); format: cell-based, mouse; details: 1 µM with Lipofectamine; compared with Lipofectamine alone
Description: as §1
Real-time cell analysis (xCELLigence, ACEABiosciences, USA) used CIM-Plates held at 37°C under an atmosphere of 5% CO2. Top chamber wells were coated with Matrigel (20 µl per well, diluted 1:40 with cold serum-free DMEM) and allowed to polymerize (4 h at 37°C under 5% CO2) prior to cell seeding. Bottom chamber wells were filled with DMEM/10% FBS (160 µl each), prior to assembly of the chambers, when serum-free DMEM was added to the top wells (30 µl each) and equilibrated (1 h at 37°C under 5% CO2). At 4 h after transfection, B16 cells (4 × 10^4) were seeded into each top chamber well in serum-free DMEM and pre-incubated for 30 min at room temperature before monitoring (xCELLigence set to collect impedance data, reported as cell index at least once every 30 min).
as §2

RLS40 lymphosarcoma [2] = assay: Tumor transplantation assay: RLS40 cells treated ex vivo, then inoculated intramuscularly; format: in vivo, CBA mice; details: cells treated with 1 µM before transplantation
Description: (§3) RLS40 ascites were taken from CBA mice intraperitoneally injected with tumor cells (2 × 10^6 in 0.2 ml buffered saline) into their abdominal cavities. RLS40 cells, isolated from ascites fluid by filtration through LSM were divided into seven portions: 1) untreated cells; 2) the cells incubated with Lipofectamine; the cells transfected with 1 µM of 3) h-ODN, 4) 2′-OMe, 5) Inh, 6) miR-21-miRNase, or 7) luc-POC each. After 4 h of transfection, cell suspensions (0.1 ml, 2 × 10^6 cells) were intramuscularly inoculated into the right lower limb of CBA mice for solid tumor development. As soon as tumors began to be palpable, the tumor volumes were measured every 2–3 days using calipers. Tumor volumes were calculated as V = (π/6 × length × width × height). Hepatic index was estimated as (liver weight/mouse weight) × 100% and as 5.0% for healthy CBA mice. Tumor doubling time (DT) was estimated as DT = (t − t0) × ln 2/(ln V − ln V0), where (t − t0) indicates the length of time between two measurements of tumor size and V0 and V denote the tumor volume at two points of the measurement ([Ozono et al., 2004]).
Figure 3 Antitumor effect of miR-21-specific miRNase. (A) Retardation of RLS40 growth in vivo after treatment of RLS40 cells with antisense oligonucleotides, control conjugate (luc-POC), or miR-21-miRNase. (B) Tumor volume on day 19 after RLS40 transplantation. Mice were injected with RLS40 cells either without any treatment (w/t) or treated with Lipofectamine (LF), commercial miR-21 inhibitor at concentration 0.1 µM (Inh 0.1, recommended) and 1 µM (Inh 1, in accordance to concentration of miRNase used in the study), control conjugate (luc-POC, 1 µM), hairpin 2′OMe oligonucleotide (2′-OMe, 1 µM), hairpin antisense oligonucleotide (h-ODN, 1 µM) or miR-21-specific miRNase (miR-21-miRNase, 1 µM). Data were statistically analyzed using two-way ANOVA with post hoc Tukey test. Data are presented as mean ± s.e. p-value indicates a statistically reliable difference. (C) Doubling time of RLS40 tumors after treatment with oligonucleotides and conjugates. TEXT PRINTED IN THE PICTURE: (C) untreated: DT, days: 2,45±0,49 | (C) LF: DT, days: 2,48±0,35 | (C) Inh 0.1: DT, days: 2,56±0,59 | (C) Inh 1: DT, days: 13,90±0,46 | (C) 2’-OMe: DT, days: 3,17±1,45 | (C) luc-POC: DT, days: 2,40±0,45 | (C) h-ODN: DT, days: 3,00±1,83 | (C) miR-21-miRNase: DT, days: 12,77±0,34

RLS40 lymphosarcoma [3] = assay: Hepatic index of mice implanted with treated RLS40 cells; format: in vivo; details: cells treated with 1 µM; (liver weight/mouse weight) × 100%; 5.0% for healthy CBA mice; Mean ± SE
Description: as §3
Supplementary Table 2. Hepatic indexes of mice implanted with RLS40 treated with antisense
oligonucleotides, control luc-POC and miR-21-miRNase
Type of treatment Hepatic index, %* p-value (vs control)
* – Mean ± SE; s.i. – statistically insignificant
Hepatic index was estimated as (liver weight/mouse weight) × 100% and as 5.0% for healthy CBA
The MDR status of RLS40 may add to the burden on the liver, when this type of tumor
metastasizes into the liver (Sen’kova et al., 2012). Ex vivo treatment of RLS40 cells by
oligonucleotides and miRNase avoids the toxic effect of antisense oligonucleotides, their conjugates
and transfection reagents directly on the tumor-bearing animal. This may allow consideration of
whether the decrease of migration activity of tumor cells translated into reduced metastatic burden of
RLS40 on the liver. Treatment of the cells seeding the tumor may not reduce migration and […]

Substance	Survival (intact) in serum-containing medium [1]	Necrosis of melanoma B16 cells (Annexin V-FITC-/PI+) (B16 melanoma cells)	Migration rate of transfected B16 cells (in words) (B16 cells)	Tumor doubling time against w/t (in words) (RLS40 lymphosarcoma [2])	Tumor growth (in words) (RLS40 lymphosarcoma [2])	Hepatic index (RLS40 lymphosarcoma [3]) [%]
ODN: linear 14-mer deoxyribooligonucleotide TCAGTCTGATAAGC (unmodified DNA)	rapidly degraded					
acetyl-[(LeuArg)2Gly]2-aminohexyl-CGATAAATAACGCGСAAGTCAGCGAAAGCTGACTTG [luc-POC, control peptide-oligonucleotide conjugate; same hairpin, complementary part replaced by luciferase gene fragment]		up to 6.5%	almost the same rate as cells incubated with Lipofectamine	did not show a statistically significant difference	did not differ	5.56±0.11
